Key:
[1] = tested on: SNU-61 (Colorectal Carcinoma); experiment: Bliss excess, mean over the matrix (fraction); higher = more synergy
Outline: (§1)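 Cell lines in DMEM/F12 or RPMI with 10% FBS were plated in 1536-well plates, held 24 hours at 37°C, 5% CO2, then given two-drug dose matrices for 72 hours (DMSO typically 0.2%). Viability was read by CellTiter-Glo 2.0 luminescence and scaled as inhibition from 0 (vehicle wells) to 1 (blank wells). Combination Emax is the second-highest inhibition in the matrix; Bliss excess is observed combination effect minus expected EA + EB − EA·EB, EA and EB being single-agent effects.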

[2] = tested on: SK-UT-1 (Other Solid Carcinomas); experiment: as above
Outline: as §1

[3] = tested on: SW48 (Colorectal Carcinoma); experiment: as above
Outline: as §1

[4] = tested on: SLVL (B-Cell Non-Hodgkin's Lymphoma); experiment: as above
Outline: as §1

[5] = tested on: HLE (Hepatocellular Carcinoma); experiment: as above
Outline: as §1

[6] = tested on: D-392MG (Glioblastoma); experiment: as above
Outline: as §1

[7] = tested on: HCT-116 (Colorectal Carcinoma); experiment: combination Emax (second highest fraction inhibited in the dose matrix, 72 h); higher = more inhibition; extreme values may be limits of the assay
Outline: as §1

[8] = tested on: MEG-01 (Chronic Myelogenous Leukemia); experiment: as above
Outline: as §1

[9] = tested on: A172 (Glioblastoma); experiment: as above
Outline: as §1

[10] = tested on: BICR78 (Oral Cavity Carcinoma); experiment: as above
Outline: as §1

[11] = tested on: HCC38 (Breast Carcinoma); experiment: as above
Outline: as §1

[12] = tested on: JHH-6 (Hepatocellular Carcinoma); experiment: as above
Outline: as §1

[13] = tested on: NOMO-1 (Acute Myeloid Leukemia); experiment: as above
Outline: as §1

[14] = tested on: PA-TU-8902 (Pancreatic Carcinoma); experiment: as above
Outline: as §1

[15] = tested on: SLVL (B-Cell Non-Hodgkin's Lymphoma); experiment: as above
Outline: as §1

[16] = tested on: MES-SA (Other Solid Carcinomas); experiment: as above
Outline: as §1

[17] = tested on: MSTO-211H (Mesothelioma); experiment: as above
Outline: as §1

[18] = tested on: HLE (Hepatocellular Carcinoma); experiment: as above
Outline: as §1

[19] = tested on: HuO9 (Osteosarcoma); experiment: as above
Outline: as §1

[20] = tested on: SK-MEL-1 (Melanoma); experiment: as above
Outline: as §1
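For Bliss excess, mean over the matrix in this document: after 72 h of two-drug dosing.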

SMILES | Bliss excess [1] | Bliss excess [2] | Bliss excess [3] | Bliss excess [4] | Bliss excess [5] | Bliss excess [6] | combination Emax [7] | combination Emax [8] | combination Emax [9] | combination Emax [10] | combination Emax [11] | combination Emax [12] | combination Emax [13] | combination Emax [14] | combination Emax [15] | combination Emax [16] | combination Emax [17] | combination Emax [18] | combination Emax [19] | combination Emax [20]
COc1cccc(OCCCN)c1-c1cc(Nc2cnc(C#N)cn2)n[nH]1 [Prexasertib] + CN(C)CCCOc1ccc(-c2ccc3ncc4c(c3c2)n(C2CCOCC2)c(=O)n4C)cn1 [AZD0156] (first compound max 1 µM, 7x7, partner max 1 µM) | -0.0459 | -0.0039 | -0.0227 | 0.0036 | -0.0646 | -0.0235 | 0.536 | 0.921 | 0.699 | 0.593 | 0.711 | 0.342 | 1 | 0.586 | 0.951 | 0.905 | 0.888 | 0.803 | 0.785 | 0.605
Cn1cnc2c(F)c(Nc3ccc(Br)cc3Cl)c(C(=O)NOCCO)cc21 [Selumetinib] + CCN(CCO)CCCOc1ccc2c(Nc3cc(CC(=O)Nc4cccc(F)c4)[nH]n3)ncnc2c1 [AZD2811] (first compound max 10 µM, 7x7, partner max 1 µM) | -0.0026 | 0.0021 | -0.0168 | -0.0465 | -0.0029 | -0.0304 | 0.792 | 0.788 | 0.416 | 0.322 | 0.133 | 0.318 | 0.988 | 0.445 | 0.639 | 0.405 | 0.318 | 0.235 | 0.242 | 0.863
C=CCn1c(=O)c2cnc(Nc3ccc(N4CCN(C)CC4)cc3)nc2n1-c1cccc(C(C)(C)O)n1 [AZD1775] + O=C(c1cc(Cc2n[nH]c(=O)c3ccccc23)ccc1F)N1CCN(C(=O)C2CC2)CC1 [Olaparib] (first compound max 1 µM, partner max 10 µM) | -0.0289 | -0.0148 | -0.0398 | -0.0005 | -0.0567 | -0.0369 | 0.635 | 0.845 | 0.434 | 0.362 | 0.579 | 0.223 | 0.917 | 0.289 | 0.915 | 0.696 | 0.696 | 0.823 | 0.792 | 0.42
Cc1cc2ncnn2cc1Nc1ncc2c(n1)n(C1CCOCC1)c(=O)n2C [AZD7648] + CCN(CCO)CCCOc1ccc2c(Nc3cc(CC(=O)Nc4cccc(F)c4)[nH]n3)ncnc2c1 [AZD2811] (first compound max 10 µM, 7x7, partner max 1 µM) | -0.0383 | 0.0407 | -0.073 | 0.0756 | 0.0271 | -0.0108 | 0.528 | 0.507 | 0.611 | 0.354 | 0.287 | 0.339 | 0.606 | 0.309 | 0.687 | 0.57 | 0.469 | 0.433 | 0.369 | 0.3
Cn1cnc2c(F)c(Nc3ccc(Br)cc3Cl)c(C(=O)NOCCO)cc21 [Selumetinib] + CC(C)n1c(=O)n(C)c2cnc3cc(F)c(-c4ccc(OCCCN5CCCCC5)nc4)cc3c21 [AZD1390] (first compound max 10 µM, 7x7, partner max 0.3 µM) | 0.0043 | -0.0066 | -0.0561 | -0.0557 | -0.0325 | -0.02 | 0.664 | 0.671 | 0.257 | 0.3 | 0.116 | 0.168 | 0.767 | 0.307 | 0.448 | 0.115 | 0.162 | 0.122 | 0.626 | 0.838
CC(=O)c1c(C)c2cnc(Nc3ccc(N4CCNCC4)cn3)nc2n(C2CCCC2)c1=O [Palbociclib] + Cn1cnc2c(F)c(Nc3ccc(Br)cc3Cl)c(C(=O)NOCCO)cc21 [Selumetinib] (first compound max 10 µM, 7x7, partner max 10 µM) | 0.0179 | -0.033 | 0.0668 | -0.0355 | -0.0418 | -0.0665 | 0.851 | 0.855 | 0.425 | 0.315 | 0.139 | 0.443 | 0.858 | 0.416 | 0.593 | 0.38 | 0.137 | 0.143 | 0.419 | 0.83
Cn1cnc2c(F)c(Nc3ccc(Br)cc3Cl)c(C(=O)NOCCO)cc21 [Selumetinib] + C=CCn1c(=O)c2cnc(Nc3ccc(N4CCN(C)CC4)cc3)nc2n1-c1cccc(C(C)(C)O)n1 [AZD1775] (first compound max 10 µM, partner max 1 µM) | -0.0358 | -0.0042 | 0.0116 | -0.0275 | -0.0358 | -0.0367 | 0.785 | 0.974 | 0.365 | 0.344 | 0.377 | 0.297 | 0.999 | 0.571 | 0.797 | 0.731 | 0.442 | 0.345 | 0.747 | 0.896
NC1(C(=O)N[C@@H](CCO)c2ccc(Cl)cc2)CCN(c2ncnc3[nH]ccc23)CC1 [Capivasertib] + CC(C)n1c(=O)n(C)c2cnc3cc(F)c(-c4ccc(OCCCN5CCCCC5)nc4)cc3c21 [AZD1390] (first compound max 10 µM, 7x7, partner max 0.3 µM) | -0.064 | -0.0017 | -0.0345 | -0.0671 | -0.0323 | -0.0645 | 0.373 | 0.256 | 0.226 | 0.368 | 0.352 | 0.309 | 0.429 | 0.278 | 0.637 | 0.469 | 0.213 | 0.194 | 0.509 | 0.226
C[C@@H](c1ccc2nccn2c1)n1nnc2ncc(-c3cnn(C)c3)nc21 [Savolitinib] + CC1(C)CCC(CN2CCN(c3ccc(C(=O)NS(=O)(=O)c4ccc(NCC5CCOCC5)c([N+](=O)[O-])c4)c(Oc4cnc5[nH]ccc5c4)c3)CC2)=C(c2ccc(Cl)cc2)C1 [Venetoclax] (first compound max 1 µM, 7x7, partner max 1 µM) | -0.0709 | -0.0234 | -0.0289 | -0.0904 | -0.0232 | -0.0454 | 0.114 | 0.0651 | 0.145 | 0.201 | 0.158 | 0.0411 | 0.395 | 0.168 | 0.406 | 0.0576 | 0.114 | 0.155 | 0.197 | 0.158
Cc1c2c(nn1C)CSCc1cc(n(C)n1)CSc1cc(c3ccccc3c1)OCCCc1c(C(=O)O)n(C)c3c-2c(Cl)ccc13 [AZD5991] + CCN(CCO)CCCOc1ccc2c(Nc3cc(CC(=O)Nc4cccc(F)c4)[nH]n3)ncnc2c1 [AZD2811] (first compound max 1 µM, 7x7, partner max 1 µM) | 0.0315 | 0.0125 | -0.0063 | 0.0734 | -0.0018 | 0.0121 | 0.438 | 0.758 | 0.474 | 0.304 | 0.521 | 0.257 | 0.93 | 0.212 | 0.768 | 0.806 | 0.443 | 0.579 | 0.991 | 0.312
Cc1cc2ncnn2cc1Nc1ncc2c(n1)n(C1CCOCC1)c(=O)n2C [AZD7648] + C[C@@H]1COCCN1C2=NC(=NC(=C2)C3(CC3)[S@](=N)(=O)C)C4=C5C=CNC5=NC=C4 [AZD6738] (first compound max 10 µM, 7x7, partner max 10 µM) | 0.0199 | 0.0471 | -0.0195 | -0.0178 | 0.0049 | 0.0217 | 0.723 | 0.894 | 0.687 | 0.598 | 0.565 | 0.333 | 0.961 | 0.24 | 0.886 | 0.632 | 0.681 | 0.721 | 0.756 | 0.293
Cc1cc2ncnn2cc1Nc1ncc2c(n1)n(C1CCOCC1)c(=O)n2C [AZD7648] + CN(C)CCCOc1ccc(-c2ccc3ncc4c(c3c2)n(C2CCOCC2)c(=O)n4C)cn1 [AZD0156] (first compound max 10 µM, 7x7, partner max 1 µM) | -0.0151 | 0.0143 | -0.0183 | -0.0164 | -0.0274 | -0.0405 | 0.317 | 0.361 | 0.319 | 0.208 | 0.233 | 0.279 | 0.461 | 0.227 | 0.404 | 0.475 | 0.33 | 0.31 | 0.369 | 0.347
CC(=O)c1c(C)c2cnc(Nc3ccc(N4CCNCC4)cn3)nc2n(C2CCCC2)c1=O [Palbociclib] + Cc1c2c(nn1C)CSCc1cc(n(C)n1)CSc1cc(c3ccccc3c1)OCCCc1c(C(=O)O)n(C)c3c-2c(Cl)ccc13 [AZD5991] (first compound max 10 µM, 7x7, partner max 1 µM) | -0.0371 | 0.0096 | 0.0255 | -0.0393 | -0.0339 | 0.0189 | 0.663 | 0.668 | 0.614 | 0.232 | 0.192 | 0.338 | 0.858 | 0.283 | 0.471 | 0.513 | 0.144 | 0.211 | 0.803 | 0.262

From the supplement of paper PMC11061612
